Experimental data taken from patent EP2599480A1 (priority 2011, dated 2013).
Read-outs that look alike come from different tables or passages of the source.

Tests used:
[1] = target: NA of influenza virus A/PR/8/34 (Influenza A virus, UniProt P03468); assay: biochemical; set-up: species or system H1N1 influenza virus A/Puerto Rico/8/34
[2] = in vitro; conditions: dog; for CC50 at 72 h: mdck
[3] = tested on: NA of influenza virus A/Jena/5528/09; type: biochemical, clinical H1N1 isolate A/Jena/5528/09
[4] = tested on: NA of influenza virus A/Jena/5555/09; type: biochemical, clinical H1N1 isolate A/Jena/5555/09

Sequence of NA of influenza virus A/PR/8/34 (P03468 whole entry, looked up): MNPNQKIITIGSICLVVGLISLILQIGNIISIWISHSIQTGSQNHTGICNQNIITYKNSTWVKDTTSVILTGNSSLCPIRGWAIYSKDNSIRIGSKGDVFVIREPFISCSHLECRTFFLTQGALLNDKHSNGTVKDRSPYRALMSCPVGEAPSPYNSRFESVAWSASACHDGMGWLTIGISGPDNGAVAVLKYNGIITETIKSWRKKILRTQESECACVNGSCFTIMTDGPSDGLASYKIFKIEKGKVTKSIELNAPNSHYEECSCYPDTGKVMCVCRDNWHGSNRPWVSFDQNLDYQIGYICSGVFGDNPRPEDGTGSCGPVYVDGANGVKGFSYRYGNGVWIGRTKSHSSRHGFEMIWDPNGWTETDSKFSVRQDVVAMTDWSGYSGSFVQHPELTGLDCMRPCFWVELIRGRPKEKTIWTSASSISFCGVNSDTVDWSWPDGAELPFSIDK

Compound | CC50 at 72 h [2] [µM] | further results
Cc1ccc(S(=O)(=O)Oc2cc(S(=O)(=O)O)cc3cc(S(=O)(=O)O)cc(N)c23)cc1 [NCI compound 16168] | – | IC50 ([1]; IC50 for A/PR/8/34): 5.91 µM; CC50 [2]: > 100 µM
O=C(Nc1cc(S(=O)(=O)O)cc2cc(S(=O)(=O)O)cc(O)c12)c1ccccc1 [NCI compound 16169] | – | CC50 [2]: > 100 µM
Nc1c(N=Nc2ccc(S(=O)(=O)Nc3ccccn3)cc2)cc(S(=O)(=O)O)c2ccccc12 [NCI compound 30456] | – | IC50 [1]: < 0.12 µM
Nc1c(N=Nc2ccc(S(=O)(=O)Nc3nccs3)cc2)cc(S(=O)(=O)O)c2ccccc12 [NCI compound 31348] | > 100 | –
O=C(Nc1cc(S(=O)(=O)O)cc2cc(S(=O)(=O)O)ccc12)c1ccccc1 [NCI compound 37172] | – | CC50 [2]: > 100 µM
Nc1ccc(C(=O)Nc2cc(S(=O)(=O)O)cc3cccc(O)c23)cc1 [NCI compound 37176] | – | CC50 [2]: > 100 µM
Nc1ccc(C(=O)Nc2cc(S(=O)(=O)O)cc3cc(S(=O)(=O)O)ccc23)cc1 [NCI compound 37180] | – | CC50 [2]: > 100 µM
CN(C)c1ccc(C=Nc2cc(S(=O)(=O)O)cc3cc(S(=O)(=O)O)cc(O)c23)cc1 [NCI compound 37200] | > 100 | IC50 [3]: 1.18 µM; IC50 [4]: 0.94 µM
CCOc1ccc(N=Nc2ccc(C=Nc3ccc4c(O)cc(S(=O)(=O)O)cc4c3)cc2)cc1 [NCI compound 37220] | > 100 | IC50 ([1]; IC50 for A/PR/8/34): 0.42 µM
Nc1ccc(C(=O)Nc2ccc(S(=O)(=O)O)c3cccc(O)c23)cc1 [NCI compound 37609] | > 100 | –
O=[N+]([O-])c1ccc(N=Nc2c(O)ccc3cc(S(=O)(=O)O)ccc23)cc1 [NCI compound 45538] | > 100 | –
O=[N+]([O-])c1ccc(N=Nc2c(O)ccc3cc(S(=O)(=O)O)cc(S(=O)(=O)O)c23)cc1 [NCI compound 45539] | > 100 | –
O=[N+]([O-])c1ccc(N=Nc2c(O)c(S(=O)(=O)O)cc3cc(S(=O)(=O)O)ccc23)cc1 [NCI compound 45540] | > 100 | –
O=[N+]([O-])c1cccc(N=Nc2c(O)c(S(=O)(=O)O)cc3cc(S(=O)(=O)O)ccc23)c1 [NCI compound 45541] | > 100 | –
O=S(=O)(O)c1cc2cccc(S(=O)(=O)O)c2c(O)c1N=Nc1ccccc1 [NCI compound 45549] | > 100 | IC50 ([1]; IC50 for A/PR/8/34): 4.85 µM
O=S(=O)(O)c1ccc2c(N=Nc3ccc(N=Nc4ccccc4)cc3)c(O)ccc2c1 [NCI compound 65545] | > 100 | IC50 [3]: 0.11 µM; IC50 [4]: 0.24 µM
Cc1cc(S(=O)(=O)O)ccc1N=Nc1ccc(N=Nc2c(O)ccc3ccccc23)c(C)c1 [NCI compound 66221] | – | IC50 ([1]; IC50 for A/PR/8/34): 0.29 µM

Compound | CC50 at 72 h [2] [µM] | further results
CC(=O)Nc1cc(S(=O)(=O)O)cc2cc(S(=O)(=O)O)cc(O)c12 [NCI compound 74489] | > 100 | –
O=S(=O)(O)c1ccc2cc(N=Nc3cc(S(=O)(=O)O)c4cccnc4c3O)ccc2c1 [NCI compound 87877] | > 100 | IC50 [3]: 1.74 µM; IC50 [4]: 1.55 µM
CCCCCC(=O)Nc1cc(S(=O)(=O)O)cc2cc(S(=O)(=O)O)cc(O)c12 [NCI compound 97290] | > 100 | –
Cc1nnc(NS(=O)(=O)c2ccc(N=Nc3c(O)c(C(=O)O)cc4ccccc34)cc2)s1 [NCI compound 134131] | > 100 | –
CC1NOC(NS(=O)(=O)c2ccc(N=Nc3c(O)c(C(=O)O)cc4ccccc34)cc2)C1C (centres unmarked) [NCI compound 134132] | – | IC50 ([1]; read-out: IC50 for A/PR/8/34): 0.64 µM
Cc1cccc(NS(=O)(=O)c2ccc(N=Nc3c(O)c(C(=O)O)cc4ccccc34)cc2)n1 [NCI compound 134133] | – | IC50 [1]: < 0.12 µM
O=C(O)c1cc2ccccc2c(N=Nc2ccc(S(=O)(=O)Nc3ccccn3)cc2)c1O [NCI compound 134134] | – | IC50 ([1]; IC50 for A/PR/8/34): 0.45 µM
O=C(O)c1cc2ccccc2c(N=Nc2ccc(S(=O)(=O)Nc3nccs3)cc2)c1O [NCI compound 134135] | > 100 | IC50 [3]: 0.24 µM; IC50 [4]: 0.31 µM
O=C(O)c1cc2ccccc2c(N=Nc2ccc(S(=O)(=O)Nc3ncccn3)cc2)c1O [NCI compound 134136] | > 100 | –
O=C(O)c1cc2ccccc2c(N=Nc2ccc(S(=O)(=O)O)cc2)c1O [NCI compound 134138] | > 100 | IC50 [3]: 3.06 µM; IC50 [4]: 2.9 µM
N=C(N)NS(=O)(=O)c1ccc(N=Nc2c(O)c(C(=O)O)cc3ccccc23)cc1 [NCI compound 134139] | > 100 | –
Cc1cc(NS(=O)(=O)c2ccc(N=Nc3c(O)c(C(=O)O)cc4ccccc34)cc2)nc(C)n1 [NCI compound 134140] | > 100 | –
Cc1ccc(N=Nc2c(O)c(C(=O)O)cc3ccccc23)cc1C [NCI compound 134141] | > 100 | –
O=C(O)c1c(O)c(N=Nc2ccc(S(=O)(=O)Nc3ccccn3)cc2)cc2ccccc12 [NCI compound 134145] | > 100 | –
Nc1cc(S(=O)(=O)O)cc2cc(S(=O)(=O)O)c(N=Nc3cc(S(=O)(=O)O)cc4cc(S(=O)(=O)O)cc(O)c34)c(O)c12 [NCI compound 162530] | > 100 | –
O=C(O)c1cc(C(=O)CCCC(=O)c2cc(C(=O)O)c(O)c3ccccc23)c2ccccc2c1O [NCI compound 292216] | > 100 | –
Cc1ccc(Nc2nnc(CSc3ccc(Cl)cc3)s2)c(S(=O)(=O)O)c1 [NCI compound 369693] | > 100 | –
